We go through 21 compounds from ChEMBL document CHEMBL1828616, “Novel terpene based 1,4,2-dioxazoles: synthesis, characterization, molecular properties and screening against Entamoeba histolytica” (Eur J Med Chem, 2011).

One data set has as its system Entamoeba histolytica. Description: Antiamoebic activity against Entamoeba histolytica HM-1:IMSS by microdilution method. The class given is functional, organism-based. Background: In broth dilution the organism is exposed to a series of concentrations in liquid medium.
Data set [1] can be described thus: Octanol-water partition coefficient, log P of the compound. The data set is classed as physicochemical.
Data set [2] is described as follows: Cytotoxicity against rat H9c2 cells assessed as cell viability at 3.13 to 25 uM after 48 hrs by MTT assay. Particulars: read-out: Activity. The data set is classed as cell-based. In general terms: Tetrazolium dyes change colour on reduction, which living cells bring about.
In data set [3] the test system is H9c2. Kind of data set: Cytotoxicity against rat H9c2 cells assessed as cell viability at 50 uM after 48 hrs by MTT assay. The class given is cell-based. Particulars: h9c2, 48 h.
Data set [4] has as its system H9c2. Kind of data set: Cytotoxicity against rat H9c2 cells assessed as cell viability at 100 uM after 48 hrs by MTT assay. The class given is cell-based. Particulars: h9c2, 48 h.
A short description of data set [5]: (§1) Cytotoxicity against rat H9c2 cells assessed as cell viability at 200 uM after 48 hrs by MTT assay. The data set is classed as cell-based. Particulars: H9c2 cells, read-out: Activity.
In data set [6] the test system is H9c2. Description: Cytotoxicity against rat H9c2 cells assessed as cell viability after 48 hrs by MTT assay. The data set is classed as cell-based. The following applies: H9c2, 48 h.
The nature of data set [7]: Selectivity index, ratio of IC50 for rat H9c2 cells to IC50 for Entamoeba histolytica HM-1:IMSS.
Data set [8] deals with H9c2. The data set is described as §1. The data set is classed as cell-based. Particulars: h9c2, 48 h, 200 µM.
Another data set can be described thus: in vitro. The following applies: rat, H9c2 cells.

The structures appear in SMILES notation.

Description for in vitro: Cytotoxicity against rat H9c2 cells assessed as cell viability at 3.13 uM after 48 hrs by MTT assay

Turning to `CC1(c2cccs2)ON=C(c2ccc3c(c2)OCO3)O1` (configuration not stated), it took 2680 nM to reach half-maximal inhibition in the data set on Entamoeba histolytica (IC50). For the same compound, the lipophilicity (logP) (as a rule, the decadic logarithm of the partition coefficient of the neutral form, usually between octanol and water) in data set [1] was 3.51.

Regarding `CC(C)=CCC/C(C)=C/C1=NOC(c2ccc3c(c2)OCO3)O1` (configuration not stated), inhibition in the data set with Entamoeba histolytica was half-maximal at 1480 nM (IC50). For the same compound, the logP in data set [1] was determined as 5.31.

On to `CC1(c2ccccn2)ON=C(c2ccc3c(c2)OCO3)O1` (configuration not stated), for which the IC50 – broadly, the point on the concentration scale where inhibition reaches its midpoint – in the data set with Entamoeba histolytica is 1000 nM; with H9c2 [6], greater than 200000 nM. For the same compound, the viability at 48 h in data set [2] is no less than 82%. For the same compound, the Activity entry in the data set with H9c2 [3] and with H9c2 [4] was “Toxic” each time. In addition, the viability at 48 h, 200 µM in data set [5] was 88%. Besides, the “Ratio IC50” value in data set [7] is listed as greater than 200. For the same compound, in data set [1], the logP came out at 2.34.

Compound `CC(C)=CCC/C(C)=C/C1=NOC(C)(c2ccco2)O1` (configuration not stated) gave an IC50 with Entamoeba histolytica of 2020 nM. In data set [1], this compound returned a logP of 5.15.

On to `c1ccc(C2ON=C(c3ccc4c(c3)OCO4)O2)nc1` (configuration not stated), for which the results for the IC50 with Entamoeba histolytica and in the data set on H9c2 [6] were 1030 nM and 40000 nM, respectively. Further, the viability at 48 h in data set [2] was no less than 82%. The Activity result in the data set with H9c2 [3], in the data set on H9c2 [4] and in the data set with H9c2 [8] was “Toxic” each time. In addition, the “Ratio IC50” value in data set [7] is 38.83. For the same compound, the logP in data set [1] was 1.8.

As to `c1ccc(C2=NOC(c3ccc4c(c3)OCO4)O2)nc1` (configuration not stated), the IC50 was determined as 1060 nM in the data set with Entamoeba histolytica and 85000 nM in the data set on H9c2 [6]. Also, the viability at 48 h in data set [2] is no less than 82%. The Activity result in the data set with H9c2 [3], in the data set on H9c2 [4] and with H9c2 [8] was “Toxic” in each case. Besides, in [7], the “Ratio IC50” value was greater than 80.18. This compound came in with a log partition coefficient (logP) in [1] of 1.8.

`CC(C)=CCC/C(C)=C/C1ON=C(c2cccs2)O1` (configuration not stated): the IC50 with Entamoeba histolytica amounted to 3050 nM. Also, the logP in data set [1] worked out at 4.74.

As to `CC(C)=CCC/C(C)=C/C1=NOC(C)(c2cccs2)O1` (configuration not stated), it took 3010 nM to reach half-maximal inhibition with Entamoeba histolytica (IC50). In data set [1], this compound displayed a logP of 5.67.

`CC(C)=CCC/C(C)=C/C1=NOC(c2ccccn2)O1` (configuration not stated) showed an IC50 in the data set on Entamoeba histolytica of 2980 nM. Moreover, in data set [1], the logP came out at 3.96.

As for `CC(C)=CCC/C(C)=C/C1ON=C(c2ccco2)O1` (configuration not stated), in the data set on Entamoeba histolytica, 2780 nM corresponded to half-maximal inhibition (IC50). Further, the logP in data set [1] is 5.25.

In the data set with Entamoeba histolytica, `CC(C)=CCC/C(C)=C/C1ON=C(c2ccccn2)O1` (configuration not stated) came in with an IC50 of 2220 nM. The compound also displayed a logP in [1] of 4.08.

For `c1coc(C2ON=C(c3ccc4c(c3)OCO4)O2)c1` (configuration not stated), the IC50 is 1090 nM in the data set on Entamoeba histolytica and greater than 200000 nM in the data set with H9c2 [6]. Also, the viability at 48 h in [2] was no less than 82%. Besides, the Activity entry in the data set with H9c2 [3], in the data set with H9c2 [4] and in the data set with H9c2 [8] was “Toxic” in each case. In [7], the “Ratio IC50” value is greater than 183.48. The compound further returned a logP in data set [1] of 2.45.

For `Cc1ncc([N+](=O)[O-])n1CCO` [METRONIDAZOLE], the Activity result in the data set on H9c2 [3], in the data set on H9c2 [4] and in the data set on H9c2 [8] was “Toxic” in each case. Besides, the IC50 in the data set on H9c2 [6] is greater than 200000 nM. The “Ratio IC50” value in data set [7] is recorded as greater than 137.9. In addition, the viability at 48 h, 3.13 µM in the data set “in vitro” is 100%.

Consider `c1csc(C2=NOC(c3ccc4c(c3)OCO4)O2)c1` (configuration not stated), for which, in the data set with Entamoeba histolytica, the IC50 was 2450 nM. Moreover, the logP in data set [1] was 2.45.

`CC(C)=CCC/C(C)=C/C1ON=C(c2ccc3c(c2)OCO3)O1` (configuration not stated) had an IC50 with Entamoeba histolytica of 1390 nM. For the same compound, the logP in data set [1] turned out to be 5.44.

`CC1(c2ccco2)ON=C(c2ccc3c(c2)OCO3)O1` (configuration not stated): the half-inhibitory concentration (IC50) is 1100 nM in the data set on Entamoeba histolytica and greater than 200000 nM in the data set with H9c2 [6]. For the same compound, the viability at 48 h in [2] is no less than 82%. For the same compound, the Activity entry in the data set with H9c2 [3], with H9c2 [4] and in the data set on H9c2 [8] was “Toxic” throughout. In addition, the “Ratio IC50” value in data set [7] is greater than 181.81. Further, in data set [1], the logP stood at 2.99.

On to `CC(C)=CCC/C(C)=C/C1=NOC(c2cccs2)O1` (configuration not stated), for which it took 2900 nM to reach half-maximal inhibition with Entamoeba histolytica (IC50). Moreover, in data set [1], the logP was found to be 5.13.

Compound `CC(C)=CCC/C(C)=C/C1=NOC(c2ccco2)O1` (configuration not stated) showed an IC50 in the data set on Entamoeba histolytica of 2420 nM. In addition, the logP in [1] is 4.61.

For the compound `c1coc(C2=NOC(c3ccc4c(c3)OCO4)O2)c1` (configuration not stated), the IC50 with Entamoeba histolytica came out at 1050 nM; in the data set on H9c2 [6], 200000 nM. In [2], the viability at 48 h was no less than 82%. Moreover, the Activity entry in the data set with H9c2 [3], in the data set on H9c2 [4] and in the data set with H9c2 [8] was “Toxic” each time. Also, the “Ratio IC50” value in [7] amounted to 190.47. In data set [1], the logP amounted to 2.97.

Compound `CC(C)=CCC/C(C)=C/C1=NOC(C)(c2ccccn2)O1` (configuration not stated) gave an IC50 in the data set on Entamoeba histolytica of 2250 nM. For the same compound, the logP in data set [1] was found to be 4.5.

Turning to `c1csc(C2ON=C(c3ccc4c(c3)OCO4)O2)c1` (configuration not stated), in the data set with Entamoeba histolytica, the IC50 came to 3500 nM. This compound showed a logP in [1] of 2.97.
